One data set concerns Ostertagia ostertagi. Put plainly: In vivo efficacy in challenged calves, percent reduction of nematodes. The note with it: subcutaneous injection. As to the method:
(§1) Calves of 2-6 months of age were challenged with Ostertagia ostertagi (approx. 20,000 larvae L3/calf) on Day 0 and Cooperia oncophora (approx. 20,000 larvae L3/calf) on Day 1 by oral drench. At day 28, animals were treated by subcutaneous injection at a dose of 0.5 mg/kg (resp. 0.75, 1, 1.5 or 2.5 mg/kg) of a solution of compound 5. On days 35-37 animals were necropsied for extraction and counting of nematodes present. Efficacy was calculated as the percent reduction of nematodes compared to the control group. For calculation the geometric mean of the nematode numbers in treatment and control group was determined (7 animals in treatment group, 8 animals in control group). The solution A used for injection contained in 1 ml: compound 5 (100 mg), L-tartaric acid 52.6 mg, propylene glycol 400 mg, benzyl alcohol 20 mg, water for injection up to 1 ml. A control group was treated by injection of vehicle only. The solution B used for injection contained in 1 ml: (50 mg Compound 5; 24.74 mg L-tartaric acid, water for injection up to 1 ml).

The test system of the next data set is Cooperia oncophora. The description is as above. As to conditions: subcutaneous injection. As to the method:
as §1

Data set [1] can be described thus: Solubility of synthesized tartrate salt and free base of compound 4. Type of data set: physicochemical. The note with it: synthesized tartrate salt; read-out: solubility (can be dissolved). As to the method:
The free base of compound 4 has a solubility of 0.8 mg/ml

Where [2] appears, read: Solution A (with propylene glycol), 0.5 mg/kg bodyweight.
[3] abbreviates: Solution A (with propylene glycol), 1.5 mg/kg bodyweight.
Setting [4] is: Solution A (with propylene glycol), 2.5 mg/kg bodyweight.
Where [5] appears, read: Solution B (without propylene glycol), 0.75 mg/kg bodyweight.
Setting [6] is: Solution B (without propylene glycol), 1 mg/kg bodyweight.

Molecules are shown by their SMILES. Counter-ions that a name gives are not always drawn.

Turning to `COc1cc(NCCNC(=O)/C=C/C(C)(F)F)ccn1` [tartrate salt of compound 5], the “reduction of O. ostertagi” value in the data set on Ostertagia ostertagi (setting [2]) came out at 98.7%; in the data set on Ostertagia ostertagi (setting [3]), 100%; with Ostertagia ostertagi (setting [4]) it was 99.8%; in the data set with Ostertagia ostertagi (Solution B (without propylene glycol), 0.5 mg/kg bodyweight) it was 78.6%; in the data set with Ostertagia ostertagi (setting [5]) it was 99.8%; in the data set on Ostertagia ostertagi (setting [6]), 99.9%. The “reduction of C. oncophora” value was 97.0% in the data set with Cooperia oncophora (setting [2]); 100% with Cooperia oncophora (setting [3]); 100% with Cooperia oncophora (setting [4]); 94.0% with Cooperia oncophora (setting [5]); 96.8% in the data set on Cooperia oncophora (setting [6]).
As to `CCOc1cc(NCCNC(=O)/C=C/C(F)(F)F)ccn1` [tartrate salt of compound 4, tartrate salt of (E)-N-[2-[(2-ethoxy-4-pyridyl)amino]ethyl]-4,4,4-trifluoro-but-2-enamide], the solubility (usually the dissolved amount per volume that the medium holds) in data set [1] came to 145 mg/mL.

These data come from US20210107874A1, “PHARMACEUTICAL FORMULATION OF CROTONYLAMINOPYRIDINE SALT” (priority 2017, published 2021).
